# Results published in patent publication US10829473B2, “Modulators of the cystic fibrosis transmembrane conductance regulator protein and methods of use” (AbbVie Overseas S.Á.R.L., priority 2017, dated 2020).
# Where two headings read alike, the source gives them in different places. Marks after values point to notes of the source that are not given here.
# Target: T1, F508delCFTR (Homo sapiens, UniProt P13569, DEL508-508)
# T1 construct: expressed in transfected cells; host or cells: CFBE41o- human lung derived epithelial cells (CFBE41o-F508delCFTR-HRP), doxycycline-inducible
# T1 sequence (P13569 with tags, fused parts or gaps DEL508-508): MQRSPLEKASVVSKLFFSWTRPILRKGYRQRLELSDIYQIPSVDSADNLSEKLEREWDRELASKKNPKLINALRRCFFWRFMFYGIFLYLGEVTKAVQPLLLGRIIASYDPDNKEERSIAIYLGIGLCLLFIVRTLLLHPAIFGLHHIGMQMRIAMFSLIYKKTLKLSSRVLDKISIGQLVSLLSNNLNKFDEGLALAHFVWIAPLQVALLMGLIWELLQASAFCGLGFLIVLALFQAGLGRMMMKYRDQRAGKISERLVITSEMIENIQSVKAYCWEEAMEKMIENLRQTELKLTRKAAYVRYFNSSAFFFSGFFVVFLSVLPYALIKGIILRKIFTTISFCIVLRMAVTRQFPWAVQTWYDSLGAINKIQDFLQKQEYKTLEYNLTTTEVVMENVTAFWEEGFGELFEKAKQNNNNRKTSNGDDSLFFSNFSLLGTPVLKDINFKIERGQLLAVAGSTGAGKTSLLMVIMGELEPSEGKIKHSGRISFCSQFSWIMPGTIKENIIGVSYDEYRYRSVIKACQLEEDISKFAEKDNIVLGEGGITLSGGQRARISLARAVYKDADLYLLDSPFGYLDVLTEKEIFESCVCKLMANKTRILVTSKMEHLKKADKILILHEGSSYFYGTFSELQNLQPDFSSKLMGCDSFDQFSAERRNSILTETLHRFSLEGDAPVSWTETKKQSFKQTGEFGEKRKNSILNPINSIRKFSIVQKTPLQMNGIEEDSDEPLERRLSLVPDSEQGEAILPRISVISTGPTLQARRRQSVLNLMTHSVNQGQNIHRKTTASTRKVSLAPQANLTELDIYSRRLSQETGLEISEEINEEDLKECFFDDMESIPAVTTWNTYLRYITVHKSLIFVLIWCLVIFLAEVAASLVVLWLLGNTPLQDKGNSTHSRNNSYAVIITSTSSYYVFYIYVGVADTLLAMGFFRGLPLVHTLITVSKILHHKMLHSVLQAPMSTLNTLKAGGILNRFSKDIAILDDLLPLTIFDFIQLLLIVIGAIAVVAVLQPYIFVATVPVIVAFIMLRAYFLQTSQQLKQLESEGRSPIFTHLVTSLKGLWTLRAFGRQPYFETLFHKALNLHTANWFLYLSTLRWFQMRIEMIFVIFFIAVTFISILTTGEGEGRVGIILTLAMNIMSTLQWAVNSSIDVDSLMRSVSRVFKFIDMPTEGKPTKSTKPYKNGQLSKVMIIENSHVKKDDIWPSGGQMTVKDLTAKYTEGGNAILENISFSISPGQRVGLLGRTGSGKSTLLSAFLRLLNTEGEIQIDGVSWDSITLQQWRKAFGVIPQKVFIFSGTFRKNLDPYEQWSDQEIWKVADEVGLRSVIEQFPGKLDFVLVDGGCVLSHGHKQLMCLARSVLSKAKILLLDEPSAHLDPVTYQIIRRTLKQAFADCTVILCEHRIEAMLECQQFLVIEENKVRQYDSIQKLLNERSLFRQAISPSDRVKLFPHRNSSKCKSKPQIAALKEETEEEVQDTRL
# Assay: Cell Surface Expression-Horse Radish Peroxidase (CSE-HRP) Assay
# Type: cell-based
# Settings: for Maximum % activity (with co-corrector) / Emax: maximum at any tested concentration; for Emax: read-out: Maximum % activity (without co-corrector)
# Procedure: A cellular assay for measuring the F508delCFTR cell surface expression after correction with test compounds either without or with a co-corrector (2 μM of 3-[(2R,4R)-4-({[1-(2,2-difluoro-1,3-benzodioxol-5-yl)cyclopropyl]carbonyl}amino)-7-methoxy-3,4-dihydro-2H-chromen-2-yl]benzoic acid), was developed in human lung derived epithelial cell line (CFBE4lo−) (Veit G et al, (2012) Mol Biol Cell. 23(21): 4188-4202). The development was achieved by expressing the F508delCFTR mutation along with a horseradish peroxidase (HRP) in the fourth exofacial loop, and then measuring the HRP activity using luminescence readout from these cells, CFBE410-F508delCFTR-HRP, that were incubated overnight with the test corrector compounds, either without or with the co-corrector. For this primary assay, the CFBE410-F508delCFTR-HRP cells were plated in 384-well plates (Greiner Bio-one; Cat 781080) at 4,000 cells/well along with 0.5 μg/mL doxycycline to induce the F508delCFTR-HRP expression and further incubated at 37° C., 5% CO2 for 68-72 hours. The test compounds were then added either without or with a co-corrector at the required concentrations and further incubated for 18-24 hours at 33° C. The highest concentration tested was 20 μM or 30 μM (GI-1 to GIII-36) with an 8-point concentration response curve using a 3-fold dilution in both the test compound without or with the co-corrector. Three replicate plates were run to determine one EC50. All plates contained negative controls (dimethyl sulfoxide, DMSO) and positive control (2 μM or 3 μM (GI-1 to GIII-36) of 3-[(2R,4R)-4-({[1-(2,2-difluoro-1,3-benzodioxol-5-yl)cyclopropyl]carbonyl}amino)-7-methoxy-3,4-dihydro-2H-chromen-2-yl]benzoic acid) as well as on-plate concentration response of the positive control. Post incubation, the plates were washed 5× times with Dulbecco's phosphate buffered saline (DPBS), followed by the addition of the HRP substrate, luminol (50 4), and measuring the HRP activity using luminescence readout on EnVision® Multilabel Plate Reader (Perkin Elmer; product number 2104-0010). The raw counts from the experiment were analyzed using Accelrys® Assay Explorer v3.3.
# Z′ greater than 0.5 was used as passing quality control criteria for the plates.
# The Z′ is defined as: 1−[3*SDPositve Control+3*SDNegative Control/Absolute(MeanPositive Control−MeanNegative Control)] wherein “SD” is standard deviation.
# The % activity measured at each of the 8 test concentrations of the test compound added either without or with a co-corrector (2 μM or 3 μM (GI-1 to GIII-36) of 3-[(2R,4R)-4-({[1-(2,2-difluoro-1,3-benzodioxol-5-yl)cyclopropyl]carbonyl}amino)-7-methoxy-3,4-dihydro-2H-chromen-2-yl]benzoic acid) was normalized to the on-plate positive control using the following formulae: % activity (Test compound without co-corrector)=[(test compound without co-corrector response DMSO response)/(positive control response DMSO response)]*100 % activity (Test compound with co-corrector)=[(test compound with co-corrector response DMSO response)/(positive control response DMSO response)]*100
# The maximum % activity achieved for the test compound either without or with a co-corrector at any tested concentration is presented in Table 6 along with the respective EC50's calculated using the following general sigmoidal curve with variable Hill slope equation (described as Model 42 in the Accelrys® Assay Explorer v3.3 software): y=(a−d)/(1+(x/c)b)+d
# General sigmoidal curve with concentration, response, top, bottom, EC50 and Hill slope. This model describes a sigmoidal curve with an adjustable baseline, a. The equation can be used to fit curves where response is either increasing or decreasing with respect to the independent variable, “x”.
# “x” is a concentration of drug under test.
# “a” is the maximum response, and “d” is the minimum response
# “c” is the inflection point (EGO for the curve. That is, “y” is halfway between the lower and upper asymptotes when x=c.
# “b” is the slope-factor or Hill coefficient. […]
# [1] = test compound with co-corrector
# [2] = test compound without co-corrector
# [3] = test compound without co-corrector, read-out: EC50 (without co-corrector)
# [4] = test compound alone, without co-corrector, read-out: EC50 (without co-corrector)
# [5] = with co-corrector, read-out: EC50 (with co-corrector)
# [6] = test compound with co-corrector, read-out: EC50 (with co-corrector)
SMILES,EC50 (with co-corrector) [1],Maximum % activity (with co-corrector) [1],Emax [2] [%],EC50 [3] [µM],EC50 [4] [µM],Maximum % activity (with co-corrector) (with co-corrector),EC50 [5] [µM],Emax (without co-corrector) [%],EC50 [6] [µM],EC50 (without co-corrector) [2]
"O=C(NS(=O)(=O)c1cccc2c1CCCN2)C1(c2ccc(C(F)(F)F)nc2C2CC2)CC1 [Example GI-6, 1-[2-cyclopropyl-6-(trifluoromethyl)pyridin-3-yl]-N-(1,2,3,4-tetrahydroquinoline-5-sulfonyl)cyclopropane-1-carboxamide]",,,,,3 to 10,+++ (≥350),< 3,> 150,,
"CC(=O)N1CCC(S(=O)(=O)NC(=O)C2(c3ccc(Cl)cc3Cl)CC2)CC1 [Example III-78, N-(1-acetylpiperidine-4-sulfonyl)-1-(2,4-dichlorophenyl)cyclopropane-1-carboxamide]",,,,,> 10,+ (<150),> 10,< 50,,
"CC(C)Oc1cnc(C2CCC2)cc1C1(C(=O)NS(=O)(=O)c2cccc3[nH]ccc23)CC1 [Example GI-27, 1-{2-cyclobutyl-5-[(propan-2-yl)oxy]pyridin-4-yl}-N-(1H-indole-4-sulfonyl)cyclopropane-1-carboxamide]",,,,,3 to 10,+++ (≥350),< 3,> 150,,
"CCOc1ncc(C2CCC2)cc1C1(C(=O)NS(=O)(=O)c2cccc3nc(C)ccc23)CC1 [Example GI-115, 1-(5-cyclobutyl-2-ethoxypyridin-3-yl)-N-(2-methylquinoline-5-sulfonyl)cyclopropane-1-carboxamide]",,+++ (≥350),> 150,< 3,,,,,< 3,
"O=C1CCCN1c1ccc(S(=O)(=O)NC(=O)C2(c3ccc(Cl)cc3Cl)CC2)cc1 [Example III-16, 1-(2,4-dichlorophenyl)-N-[4-(2-oxopyrrolidin-1-yl)benzene-1-sulfonyl]cyclopropane-1-carboxamide]",,,,,> 10,+ (<150),> 10,< 50,,
"CCc1cnc(OCC(C)C)c(C2(C(=O)NS(=O)(=O)c3cccc4[nH]ncc34)CC2)c1 [Example I-94, 1-[5-ethyl-2-(2-methylpropoxy)pyridin-3-yl]-N-(1H-indazole-4-sulfonyl)cyclopropane-1-carboxamide]",,,,,< 3,+++ (≥350),< 3,> 150,,
COc1ncc(C(F)(F)F)cc1C1(C(=O)NS(=O)(=O)c2cccc3c2CCCN3)CC1 [II-8],,,,,3 to 10,+++ (≥350),< 3,> 150,,
"COc1ccc(C2CCC2)cc1C1(C(=O)NS(=O)(=O)c2cccn3nccc23)CC1 [Example I-61, 1-(5-cyclobutyl-2-methoxyphenyl)-N-(pyrazolo[1,5-a]pyridine-4-sulfonyl)cyclopropane-1-carboxamide]",,,,,< 3,+++ (≥350),< 3,> 150,,
"Cc1ccc2c(S(=O)(=O)NC(=O)C3(c4cc(C5CCC5)cnc4OC(C)C)CC3)cccc2n1 [Example GI-23, 1-{5-cyclobutyl-2-[(propan-2-yl)oxy]pyridin-3-yl}-N-(2-methylquinoline-5-sulfonyl)cyclopropane-1-carboxamide]",,,,,< 3,+++ (≥350),< 3,> 150,,
"O=C(NS(=O)(=O)c1ccccc1Cl)C1(c2cccc(Cl)c2)CC1 [Example III-23, N-(2-chlorobenzene-1-sulfonyl)-1-(3-chlorophenyl)cyclopropane-1-carboxamide]",,,,,3 to 10,+++ (≥350),3 to 10,50 to 150,,

# Further lines, results first:
EC50 (with co-corrector) [1],Maximum % activity (with co-corrector) [1],Emax [2] [%],EC50 [3] [µM],EC50 [4] [µM],Maximum % activity (with co-corrector) (with co-corrector),EC50 [5] [µM],Emax (without co-corrector) [%],EC50 [6] [µM],EC50 (without co-corrector) [2],SMILES
++^a,++ (≥150 and <350),< 50,> 10,,,,,,,CC(C)Oc1cnc(Cl)c(C2(C(=O)NS(=O)(=O)c3cccc4ncccc34)CC2)c1 [GIII-13]
,,,,< 3,+++ (≥350),< 3,> 150,,,"CCOc1ccc(C(C)(C)OC)cc1C1(C(=O)NS(=O)(=O)c2cccc3nc(C)ccc23)CC1 [Example I-104, 1-[2-ethoxy-5-(2-methoxypropan-2-yl)phenyl]-N-(2-methylquinoline-5-sulfonyl)cyclopropane-1-carboxamide]"
,+++ (≥350),> 150,3 to 10,,,,,3 to 10,,"CCc1cnc(N2CCC(OC)CC2)c(C2(C(=O)NS(=O)(=O)c3cccc4ncccc34)CC2)c1 [GII-57, 1-[5-ethyl-2-(4-methoxypiperidin-1-yl)pyridin-3-yl]-N-(quinoline-5-sulfonyl)cyclopropane-1-carboxamide]"
,+++ (≥350),> 150,3 to 10,,,,,< 3,,"Cc1ccc2c(S(=O)(=O)NC(=O)C3(c4cc(OC(C)C)cnc4OC(C)C)CC3)cccc2n1 [Example GI-67, 1-{2,5-bis[(propan-2-yl)oxy]pyridin-3-yl}-N-(2-methylquinoline-5-sulfonyl)cyclopropane-1-carboxamide]"
,,,,3 to 10,+++ (≥350),< 3,> 150,,,COc1ccc(C(C)OC)cc1C1(C(=O)NS(=O)(=O)c2cccc3ncccc23)CC1 (centres unmarked) [II-87]
,,,,< 3,+++ (≥350),< 3,> 150,,,"CO[C@H](C)COc1ccc(C)cc1C1(C(=O)NS(=O)(=O)c2cccc3nc(C)ccc23)CC1 [Example I-116, 1-{2-[(2R)-2-methoxypropoxy]-5-methylphenyl}-N-(2-methylquinoline-5-sulfonyl)cyclopropane-1-carboxamide]"
,,,,< 3,+++ (≥350),< 3,> 150,,,"COc1ccc(C)c(OC)c1C1(C(=O)NS(=O)(=O)c2cccc3ncccc23)CC1 [Example I-41, 1-(2,6-dimethoxy-3-methylphenyl)-N-(quinoline-5-sulfonyl)cyclopropane-1-carboxamide]"
,++ (≥150 and <350),50 to 150,,,,,,3 to 10,++^a,"CCc1ncc(OC(C)C)cc1C1(C(=O)NS(=O)(=O)c2cccc3ncccc23)CC1 [GII-16, 1-{2-ethyl-5-[(propan-2-yl)oxy]pyridin-3-yl}-N-(quinoline-5-sulfonyl)cyclopropane-1-carboxamide]"
,,,,< 3,+++ (≥350),< 3,> 150,,,"COc1ccc(OC)c(C2(C(=O)NS(=O)(=O)c3cccc4ncccc34)CC2)c1 [Example I-29, 1-(2,5-dimethoxyphenyl)-N-(quinoline-5-sulfonyl)cyclopropane-1-carboxamide]"
,,,,< 3,+++ (≥350),< 3,> 150,,,"CCc1cnc(OCC(C)C)c(C2(C(=O)NS(=O)(=O)c3cccc4nc(N)ccc34)CC2)c1 [Example I-98, N-(2-aminoquinoline-5-sulfonyl)-1-[5-ethyl-2-(2-methylpropoxy)pyridin-3-yl]cyclopropane-1-carboxamide]"
